{
  "source": "patent US20230263825A1",
  "about": "“ANTI-CANCER ACTIVITY OF PERBORATE SALTS” (priority 2020, published 2023)",
  "key": {"[1]": {"test_system": "PSN-1 (a pancreatic adenocarcinoma cell line)", "assay": "MTS cytotoxicity assay, single agents and combinations", "assay_type": "cell-based", "settings": "Homo sapiens, PSN1, PSN-1, chemotherapeutic agent alone; read-out: EC50 concentration", "procedure": "(§1) An MTS reduction (MTS (3-(4,5-dimethylthiazol-2-yl)-5-(3-carboxymethoxyphenyl)-2-(4-sulfophenyl)-2H-tetrazolium) assay) was conducted to analyze the cytotoxic effect of sodium perborate tetrahydrate on lung, chordoma and pancreatic cells and normal cells. In this method, cell viability is determined via the activity of mitochondrial dehydrogenase enzyme, which reduces the tetrazolium dye MTS to its […] formazan (absorbance maximum of 490 nm in PBS).\n(§2) Cells were counted and seeded in 96-well culture dishes. […] The positive control comprised 20% Dimethyl Sulfoxide and the negative control comprised complete growth media. Seeding densities were as follows: DMS114: 20.000 cells/well; MRC5: 5.000 cells/well; CH22: 2.000 cells/well; JHC7, UM-Chor1, MUG-Chor1, UCH1 and NPH: 5.000 cells/well; PSN1: 10.000 cells/well; BxPC3 and ASPC: 7.500 cells/well. The effect of sodium perborate tetrahydrate on cell viability was measured as follows. The cell culture medium was discarded and 100 μl of MTS solution (10% glucose solution and 1% MTS-PMS solution in PBS) was added into each well. After 1 hour incubation in a humidified incubator, an absorbance reading was taken to determine mitochondrial dehydrogenase activity and cell survival was calculated relative to the negative control."}, "[2]": {"test_system": "DMS114 cells (small cell lung cancer cells)", "assay": "MTS cytotoxicity assay", "assay_type": "cell-based", "settings": "DMS114", "procedure": "as §1, §2"}},
  "note": "pEC50: −log10 of the molar value.",
  "data": [
    {"molecule": "O=c1[nH]cc(F)c(=O)[nH]1", "note": "[5-Fluorouracil, reference compound]", "values": [
      {"measurement": "pEC50", "setting": "[1]", "value": 4.89}
    ]},
    {"molecule": "OB(O)O", "note": "[boric acid, reference compound]", "values": [
      {"measurement": "EC50", "setting": "[2]; Homo sapiens, DMS-114, read-out: EC50 (dose that kills 50% of cells)", "value": 1000, "unit": "µg/mL"}
    ]},
    {"molecule": "sodium pentaborate pentahydrate [reference compound]", "values": [
      {"measurement": "EC50 (dose that kills 50% of cells)", "setting": "[2]", "value": "1,250 μg/mL"}
    ]}
  ]
}
